Literature values in patent publication US20220047514A1, “SOLID ORAL PHARMACEUTICAL COMPOSITIONS FOR CHRONOTROPIC ADMINISTRATION OF DIPEPTIDYL PEPTIDASE IV INHIBITORS” (priority 2018, published 2022).

What was measured:
DPP-8 = DPP-8 (Homo sapiens, UniProt Q6V1X1); details: at therapeutic concentrations
DPP-9 = DPP-9 (Homo sapiens, UniProt Q86TI2); details: at therapeutic concentrations
Chain of DPP-9 (Q86TI2 whole entry): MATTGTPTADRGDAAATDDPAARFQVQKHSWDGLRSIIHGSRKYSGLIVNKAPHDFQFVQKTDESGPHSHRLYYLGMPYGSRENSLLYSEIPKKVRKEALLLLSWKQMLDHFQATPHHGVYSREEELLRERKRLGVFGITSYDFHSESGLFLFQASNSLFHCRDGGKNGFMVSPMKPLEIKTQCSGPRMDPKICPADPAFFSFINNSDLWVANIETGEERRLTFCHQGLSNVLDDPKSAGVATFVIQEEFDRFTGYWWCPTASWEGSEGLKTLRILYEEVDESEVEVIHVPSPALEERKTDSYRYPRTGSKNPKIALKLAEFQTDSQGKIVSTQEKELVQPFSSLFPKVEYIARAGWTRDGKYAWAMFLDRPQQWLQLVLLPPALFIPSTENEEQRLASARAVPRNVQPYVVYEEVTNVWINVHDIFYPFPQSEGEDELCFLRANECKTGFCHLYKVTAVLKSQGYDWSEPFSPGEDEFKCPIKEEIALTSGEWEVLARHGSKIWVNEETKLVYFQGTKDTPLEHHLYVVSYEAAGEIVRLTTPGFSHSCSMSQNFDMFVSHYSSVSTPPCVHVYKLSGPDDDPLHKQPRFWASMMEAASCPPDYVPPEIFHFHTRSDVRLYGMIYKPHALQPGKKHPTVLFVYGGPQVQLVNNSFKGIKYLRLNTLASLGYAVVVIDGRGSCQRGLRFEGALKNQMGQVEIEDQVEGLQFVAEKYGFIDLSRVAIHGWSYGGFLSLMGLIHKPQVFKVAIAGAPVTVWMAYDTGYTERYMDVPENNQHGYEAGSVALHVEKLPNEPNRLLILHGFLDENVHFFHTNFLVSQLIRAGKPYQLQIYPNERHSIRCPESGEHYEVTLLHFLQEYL

Chain of DPP-8 (Q6V1X1 whole entry): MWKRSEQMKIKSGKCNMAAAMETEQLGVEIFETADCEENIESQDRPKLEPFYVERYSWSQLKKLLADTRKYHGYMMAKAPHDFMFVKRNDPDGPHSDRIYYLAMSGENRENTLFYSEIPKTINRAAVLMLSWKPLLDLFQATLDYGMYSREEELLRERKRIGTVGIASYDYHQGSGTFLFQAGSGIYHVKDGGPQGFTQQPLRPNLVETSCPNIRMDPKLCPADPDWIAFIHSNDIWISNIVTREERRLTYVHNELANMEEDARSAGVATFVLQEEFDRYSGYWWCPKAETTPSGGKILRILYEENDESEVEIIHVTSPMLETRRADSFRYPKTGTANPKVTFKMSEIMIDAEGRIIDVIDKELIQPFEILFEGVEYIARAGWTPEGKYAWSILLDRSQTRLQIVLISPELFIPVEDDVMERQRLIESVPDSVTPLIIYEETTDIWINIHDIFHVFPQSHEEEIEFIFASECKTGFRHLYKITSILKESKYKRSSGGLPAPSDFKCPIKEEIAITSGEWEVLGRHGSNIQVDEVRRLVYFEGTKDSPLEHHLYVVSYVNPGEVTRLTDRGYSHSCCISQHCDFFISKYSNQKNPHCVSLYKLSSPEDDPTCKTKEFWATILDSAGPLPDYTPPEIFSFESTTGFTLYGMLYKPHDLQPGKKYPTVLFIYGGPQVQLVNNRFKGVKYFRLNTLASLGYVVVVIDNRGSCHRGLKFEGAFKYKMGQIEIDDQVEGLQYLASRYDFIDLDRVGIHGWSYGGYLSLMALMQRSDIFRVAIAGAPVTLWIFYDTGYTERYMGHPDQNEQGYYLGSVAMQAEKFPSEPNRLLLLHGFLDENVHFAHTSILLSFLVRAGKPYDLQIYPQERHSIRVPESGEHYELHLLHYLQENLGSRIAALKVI

Compound: N[C@@H](CC(=O)N1CCn2c(nnc2C(F)(F)F)C1)Cc1cc(F)c(F)cc1F [Sitagliptin, sitagliptin]
- inhibition of the activity of DPP-8 (DPP-8): does not inhibit
- inhibition of the activity of DPP-9 (DPP-9): does not inhibit
